Source: patent publication EP0424670B1, “ZNS-active hexapeptides with antiamnestic activity” (HOECHST AKTIENGESELLSCHAFT, priority 1989, dated 1995)
Where a SMILES comes first, the peptide text is derived from it.

Experiments:
[1] = system: Scopolamin-induzierte Amnesie; assay: inhibitory (passive) avoidance test (step-through model), reversal of scopolamine-induced amnesia; assay type: in vivo, Mäusen; settings: Mus musculus, po, mice, comparison compound, read-out: MED (minimal effektive Dosis)
Source text: (§1) Die erfindungsgemäße Verbindung ist aufgrund ihrer pharmakologischen Eigenschaften für die Behandlung cognitiver Dysfunktionen unterschiedlicher Genese, wie sie z.B. bei der Alzheimer'schen Krankheit oder der senilen Demenz auftreten, geeignet. Die Verbesserung cognitiver Funktionen durch die erfindungsgemäßen Verbindungen (nootrope Wirkung) wurde im Tierexperiment an Mäusen mittels des inhibitory (passive) avoidance-Tests (step-through-Modell) und an Ratten mittels des radial-maze-Tests (8-armiger radialer Irrgarten) geprüft. Es handelt sich hierbei um literaturbeschriebene Standardtests zur Prüfung von Lern-und Gedächtnisfunktionen im Tierexperiment. (Inhibitory avoidance J. Bures, O. Buresova und J. Huston in "Techniques and Basic Experiments for the Study of Brain and Behavior", Elsevier Scientific Publishers, Amsterdam 1983; Radial Maze: U. Stäubli, M. Baudry und G. Lynch, Behavioral and Neural Biology 40, 58-69 (1984).)
(§2) Entsprechend den genannten Literaturangaben wird eine Substanz dann als nootrop wirksam bezeichnet, wenn sie bei den Versuchstieren der durch Scopolamin, Elektroschock oder Inhibitoren der Proteinsynthese induzierte Erhöhung der Fehlerrate in diesen Tests entgegenwirkt oder sie gar aufzuheben vermag.
(§3) Die Versuche wurden nach den obenbeschriebenen Testverfahren durchgeführt. […]

[2] = system: Scopolamin-induzierte Amnesie; assay: radial-maze test (8-arm radial maze), reversal of scopolamine-induced amnesia; assay type: in vivo, Ratten; settings: Rattus norvegicus, po, rats, comparison compound, read-out: MED (minimal effektive Dosis)
Source text: as §1, §2, §3

[3] = stability in water at 80°C for 8 days, checked by HPLC; assay type: physicochemical; settings: 200 mg in 20 ml water, 8 days at 80°C, freeze-dried, HPLC detection at 220 nm
Experimental: • a) 200 mg Ac-Met(O₂)-Glu-His-Phe-D-Lys-Phe-NH(CH₂)₈-NH₂ · 2 CH₃COOH wurden in 20 ml Wasser gelöst und 8 Tage auf 80°C erhitzt. Nach dem Abkühlen wurde gefriergetrocknet.

Zersetzung (HPLC-Untersuchung) [3]	SMILES	minimal effective dose [1]	minimal effective dose [2]
	NC(=O)CN1CCCC1=O [Piracetam, 2-Oxo-1-pyrrolidinylessigsäureamid]	500 to 1000 mg/kg	500 to 1000 mg/kg
keine Zersetzung	CC(=O)N[C@@H](CCS(C)(=O)=O)C(=O)N[C@@H](CCC(=O)O)C(=O)N[C@@H](Cc1c[nH]cn1)C(=O)N[C@@H](Cc1ccccc1)C(=O)N[C@H](CCCCN)C(=O)N[C@@H](Cc1ccccc1)C(=O)NCCCCCCCCN [Ac-Met(O₂)-Glu-His-Phe-D-Lys-Phe-NH-(CH₂)₈-NH₂ · 2 CH₃COOH] (HELM PEPTIDE1{[ac].[CS(=O)(=O)CC[C@H](N[*:1])C(=O)[*:2]].E.H.F.[dK].F.[NCCCCCCCCN[*:1]]}$$$$V2.0)		
starke Zersetzung	CS(=O)(=O)CC[C@H](N)C(=O)N[C@@H](CCC(=O)O)C(=O)N[C@@H](Cc1c[nH]cn1)C(=O)N[C@@H](Cc1ccccc1)C(=O)N[C@H](CCCCN)C(=O)N[C@@H](Cc1ccccc1)C(=O)NCCCCCCCCN [H-Met(O₂)-Glu-His-Phe-D-Lys-Phe-NH-(CH₂)₈-NH₂] (HELM PEPTIDE1{[CS(=O)(=O)CC[C@H](N)C(=O)[*:2]].E.H.F.[dK].F.[NCCCCCCCCN[*:1]]}$$$$V2.0)		
